From patent US20060178374A1, “Aminoheteroaryl compounds as protein kinase inhibitors” (AGOURON PHARMACEUTICALS, INC., priority 2004, published 2006) come the findings set out here.

The target in the test is HGFR (c-Met) (Homo sapiens, UniProt P08581). The test can be described thus: HGFR Continuous-Coupled Spectrophotometric Assay. To be noted: HGFR enzyme 50 nM, Met-2 peptide substrate, 37° C. Type of test: biochemical. In outline: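 Human HGFR (50 nM final) phosphorylates the Met-2 activation-loop peptide, with ADP formation coupled through PK/LDH to NADH consumption, read as the A340 decrease over 10 min at 37 °C. Buffer was HEPES pH 7.5 with MgCl2, DTT, PEP and ATP.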
Chain of HGFR (c-Met) (P08581 974-1390): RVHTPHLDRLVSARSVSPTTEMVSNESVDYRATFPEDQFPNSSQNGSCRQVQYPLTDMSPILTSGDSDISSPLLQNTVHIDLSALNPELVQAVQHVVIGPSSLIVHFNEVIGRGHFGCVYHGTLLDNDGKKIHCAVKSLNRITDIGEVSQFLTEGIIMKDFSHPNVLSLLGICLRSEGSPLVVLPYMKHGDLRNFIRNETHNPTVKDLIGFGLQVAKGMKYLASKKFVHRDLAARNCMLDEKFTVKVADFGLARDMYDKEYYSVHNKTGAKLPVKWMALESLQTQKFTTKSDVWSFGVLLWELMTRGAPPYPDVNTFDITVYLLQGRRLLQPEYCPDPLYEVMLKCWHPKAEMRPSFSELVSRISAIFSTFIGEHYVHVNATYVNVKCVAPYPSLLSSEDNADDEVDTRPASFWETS
For `CC(=O)c1ccc(-c2cnc(N)c(OC(C)c3c(Cl)ccc(F)c3Cl)c2)cc1` (centres unmarked) [Example 147, 1-(4-{6-amino-5-[1-(2,6-dichloro-3-fluorophenyl)ethoxy]pyridin-3-yl}phenyl) ethanone], affinity was put at a Ki of 73 nM. Under `CC(Oc1cc(-c2ccc3c(ccn3C)c2)cnc1N)c1c(Cl)ccc(F)c1Cl` (centres unmarked) [Example 148, 3-[1-(2,6-dichloro-3-fluorophenyl)ethoxy]-5-(1-methyl-1H-indol-5-yl)pyridin-2-amine] stands 153 nM. With `COc1ccc(-c2cnc(N)c(OC(C)c3c(Cl)ccc(F)c3Cl)c2)cc1CC#N` (centres unmarked) [Example 149, (5-{6-amino-5-[1-(2,6-dichloro-3-fluorophenyl)ethoxy]pyridin-3-yl}-2-methoxyphenyl) acetonitrile], the Ki came to 370 nM. With `CC(O)c1cccc(-c2cnc(N)c(OC(C)c3c(Cl)ccc(F)c3Cl)c2)c1` (centres unmarked) [Example 150, 1-(3-{6-amino-5-[1-(2,6-dichloro-3-fluorophenyl)ethoxy]pyridin-3-yl}phenyl)ethanol], the Ki is 200 nM. Under `CC(Oc1cc(-c2ccc(C3(C#N)CCNCC3)cc2)cnc1N)c1c(Cl)ccc(F)c1Cl` (centres unmarked) [Example 152, 4-(4-{6-amino-5-[1-(2,6-dichloro-3-fluorophenyl)ethoxy]pyridin-3-yl}phenyl) piperidine-4-carbonitrile] stands 12 nM; under `CC(Oc1cc(-c2cccc(C3(C#N)CCNCC3)c2)cnc1N)c1c(Cl)ccc(F)c1Cl` (centres unmarked) [Example 153, 4-(3-{6-amino-5-[1-(2,6-dichloro-3-fluorophenyl)ethoxy]pyridin-3-yl}phenyl) piperidine-4-carbonitrile], 6 nM; under `CC(=O)N1CCC(C#N)(c2cccc(-c3cnc(N)c(OC(C)c4c(Cl)ccc(F)c4Cl)c3)c2)CC1` (centres unmarked) [Example 154, 1-acetyl-4-(3-{6-amino-5-[1-(2,6-dichloro-3-fluorophenyl)ethoxy]pyridin-3-yl}phenyl) piperidine-4-carbonitrile], 22 nM.

For `CC(Oc1cc(-c2ccc3nc(C(=O)N(C)C)cn3c2)cnc1N)c1c(Cl)ccc(F)c1Cl` (centres unmarked) [Example 155, 6-{6-amino-5-[1-(2,6-dichloro-3-fluorophenyl)ethoxy]pyridin-3-yl}-N,N-dimethylimidazo[1,2-a]pyridine-2-carboxamide], the Ki came out at 40 nM.
